From patent US5496856A, “Aspartame for its application as a therapeutically active substance” (priority 1993, dated 1996)
Entries after “also recorded” stand apart in the source; their conditions may differ. Peptide text beside a SMILES is read from it.

Legend:
[1] = Urine proteins in rats treated with ochratoxin A; assay type: in vivo; details: aspartame 25 mg/kg + ochratoxin A 289 μg/kg, 3 weeks
Method: (§1) The animals used in this experiment are male rats of the Wistar strain weighing 160±10 g.
(§2) The aspartame is administered by gavage, at the same time as the ochratoxin A, every 48 hours for 3 weeks.
(§3) Group I: control rats (blanks)
(§4) Group II: control rats treated with 0.1 M NaHCO3, pH 7.4
(§5) Group III: rats treated with ochratoxin A (289 μg/kg)
(§6) Group IV: rats treated with ochratoxin A (289 μg/kg)+aspartame (25 mg/kg).
(§7) The control and treated rats are placed in a metabolic cage for 24 hours for urine sampling and then sacrificed.

[2] = system: DNA; assay: DNA adducts by postlabeling with ATP gamma 32P in organs (genotoxicity); assay type: in vivo, rats
Method: as §1, §2, §7
The organs of the same animals were used for extraction of the DNA, which was analyzed by the technique of postlabeling with ATP gamma 32P in order to evaluate the genotoxicity by the presence of adducts with DNA bases.

[3] = Plasma concentration of aspartame after oral administration; assay type: in vivo; details: within 24h, per os
[4] = Serum and urine assays of ochratoxin (urinary elimination); assay type: in vivo, rats
Method: as §1, §2, §3, §4, §5, §6, §7

[5] = system: renal cells; assay: Entry of ochratoxin into renal cells; details: ochratoxin A with aspartame
[6] = system: human plasma proteins; assay: OTA binding to human plasma proteins, condition (ii): OTA with or without aspartame in lower compartment; assay type: in vitro ADME
Method: (§8) A further study was performed in order to determine the effect of aspartame on OTA binding on human plasma proteins in vitro.
(§9) An in-vitro study was performed on plasma samples obtained from healthy human volunteers, from a French blood bank (Centre de transfusion sanguine in Bordeaux), using citrate as anticoagulant. Blood samples were centrifuged at 1800 g for 30 minutes. This pooled human plasma contained 41±3 g of proteins per liter.
(§10) Static diffusion cells (polypropylene, homemade according to the model provided by Nalgene, USA) containing two compartments (upper and lower) separated by a dialysing membrane having a 10 000 D exclusion limit (Sigma Chemical, USA) were used. This membrane allows OTA and aspartame diffusion and not protein diffusion.
(§11) A human plasma sample was placed in the upper compartment and a medium (RPMI 1640, Sigma chemical, USA) in the lower one.
(§12) The plasma binding properties of OTA were evaluated under two different conditions:
(ii) The upper compartment contained human plasma proteins only and OTA (20, 100 and 500 μg/ml) was added into the lower compartment alone or concommitantly with 10 μg/ml aspartame.
(§13) OTA concentration in the upper compartment was determined by HPLC (Mobile phase: methanol, acetonitrile, acetic acid, sodium acetate 5 mM (300: 300: 400: 14 v/v/v/v); injection volume 50 μl; flow rate 1 ml/min; run time for one cycle: 10 min and fluorescence detection (excitation at 340 nm and emission at 465 nm).
(§14) Before extraction of OTA from the plasma, all the studied samples of plasma, which had already fixed OTA, were dialysed against free OTA RPMI medium for at least 15 minutes, one or several times, until no more OTA was found in the lower compartment.
(§15) The results obtained under condition (i) as defined hereinabove are reported in Table I, whereas the results obtained under condition (ii) are reported in Table II.
Under condition (ii) (Table II), the aspartame was put in the same compartment as OTA in the non-plasmatic compartment to mimic the stomach (the ration OTA/aspartame=1.5 to 36).

[7] = system: glomerular filtration; details: mice
Method: Male mice of the Swiss strain weighing 32±2 g are distributed into cages in groups of 5. The animals are classified in order of increasing weight and distributed randomly into 4 groups of 5 mice (homogeneous distribution by randomization).
An amount of ochratoxin A corresponding to 289 μg/kg of body weight is given to the mice via an esophageal tube every 48 h for one week; the toxin is dissolved in 0.3 ml of 0.1M NaHCO3, pH 7.4.
0.3 ml of 0.1 M NaHCO3, pH 7.4, is given in the same way to the mice used as controls.
4 groups of 5 mice were studied.
Group I: control mice treated with 0.1 M NaHCO3, pH 7.4
Group II: mice treated with ochratoxin A (289 μg/kg)
Group III: mice treated with ochratoxin A (289 μg/kg)+aspartame (30 mg/kg)
Group IV: control mice treated with aspartame only.
The aspartame is administered in 0.3 ml of H2 O one hour after the last administration of ochratoxin A.
The mice are placed in a metabolic cage for 15 hours and then sacrificed.
The creatinine is assayed in the 15-hour urine and serum.

[8] = Toxic oxidative effects of ochratoxin A in vivo and in vitro
[9] = system: human plasma proteins; assay: OTA binding to human plasma proteins, condition (i): aspartame in upper (plasma) compartment; assay type: in vitro ADME
Method: as §8, §9, §10, §11, §12
(i) The aspartame at a concentration of 10 μg/ml was added in the upper compartment containing human plasma proteins before introducing OTA at three different concentrations (20, 100, and 500 μg/ml) in the lower compartment;
as §13, §14, §15

[10] = system: glomerular filtration; assay: Serum and urine creatinine in ochratoxin A-treated rats; assay type: in vivo, male rats of the Wistar strain
Method: The animals used in this experiment are male rats of the Wistar strain weighing 160±10 g. The animals are classified in order of increasing weight and distributed randomly into 4 groups of 6 rats (homogeneous distribution by randomization).
An amount of ochratoxin A corresponding to 289 μg/kg of body weight is given to the rats by gavage every 48 hours for 3 weeks; the toxin is dissolved in 0.3 ml of a 0.1 M solution of NaHCO3, pH 7.4.

[11] = system: tubular cells; assay: Urinary renal enzyme activities (LAP, PAL, LDH, γ-GT) in rats treated with ochratoxin A; assay type: in vivo; details: aspartame 25 mg/kg + ochratoxin A 289 μg/kg, 3 weeks
Method: as §1, §2, §3, §4, §5, §6, §7

[12] = OTA 20 μg/ml, 30 min, aspartame 10 μg/ml
[13] = OTA 20 μg/ml, 60 min, aspartame 10 μg/ml
[14] = OTA 20 μg/ml, 120 min, aspartame 10 μg/ml
[15] = OTA 100 μg/ml, 30 min, aspartame 10 μg/ml
[16] = OTA 100 μg/ml, 60 min, aspartame 10 μg/ml
[17] = OTA 100 μg/ml, 120 min, aspartame 10 μg/ml
[18] = OTA 500 μg/ml, 30 min, aspartame 10 μg/ml
[19] = OTA 500 μg/ml, 60 min, aspartame 10 μg/ml
[20] = OTA 500 μg/ml, 120 min, aspartame 10 μg/ml
[21] = aspartame 30 mg/kg one hour after last ochratoxin A
[22] = rats, aspartame 25 mg/kg + ochratoxin A 289 μg/kg every 48 h, 3 weeks, gavage

COC(=O)[C@H](Cc1ccccc1)NC(=O)[C@@H](N)CC(=O)O [Aspartame, methyl ester of L-aspartyl- L-phenylalanine] (H-Asp-Phe-OMe)
effect on the ochratoxin-induced increase in the level of urine proteins [1]: reduces the increase, induced by ochratoxin, in the level of urine proteins | DNA adducts in organs, aspartame and OTA ([2]; aspartame 25 mg/kg + OTA 289 μg/kg, 3 weeks): virtually complete disappearance of the DNA adducts; also recorded: comparable to those of the controls | nephrotoxic and genotoxic effects (overall conclusion) ([2]; results of the experiments performed): suppresses not only the nephrotoxic effects but also the genotoxic effects | oral dose of aspartame giving plasma concentration of 10 mg/l [3]: 400 to 600 mg | urinary elimination of ochratoxin ([4]; serum and urine assays, rats, aspartame 25 mg/kg + ochratoxin A, 3 weeks): very substantially favors urinary elimination of the ochratoxin A; also recorded: significantly increases the urinary elimination of ochratoxin | effect on metabolism and elimination of ochratoxin A ([4]; summary statement): slow down the metabolism and accelerate the elimination of ochratoxin A | concentration/entry of ochratoxin in renal cells [5]: limiting the entry of ochratoxin into these cells; also recorded: reducing the concentration of ochratoxin in the renal cells | Quantities of OTA bound to plasma proteins, OTA + Aspartame (Table II) [6, 12]: 159 ± 13 ng/mL | Quantities of OTA bound to plasma proteins, OTA + Aspartame (Table II) [6, 13]: 53 ± 6 ng/mL | Quantities of OTA bound to plasma proteins, OTA + Aspartame (Table II) [6, 14]: 39 ± 4 ng/mL | Quantities of OTA bound to plasma proteins, OTA + Aspartame (Table II) [6, 15]: 245 ± 15 ng/mL | Quantities of OTA bound to plasma proteins, OTA + Aspartame (Table II) [6, 16]: 459 ± 27 ng/mL | Quantities of OTA bound to plasma proteins, OTA + Aspartame (Table II) [6, 17]: 587 ± 38 ng/mL | Quantities of OTA bound to plasma proteins, OTA + Aspartame (Table II) [6, 18]: 516 ± 19 ng/mL | Quantities of OTA bound to plasma proteins, OTA + Aspartame (Table II) [6, 19]: 1127 ± 89 ng/mL | Quantities of OTA bound to plasma proteins, OTA + Aspartame (Table II) [6, 20]: 1789 ± 56 ng/mL | efficiency in preventing the binding of OTA on human plasma proteins ([6]; OTA in lower compartment (stomach), OTA as high as 20 μg/ml): more than 95% | prevention of the binding of OTA ([6]; Table II, OTA 100 μg/ml, aspartame 10 μg/ml): 50% | efficiency in preventing OTA binding (in words) ([6]; Table II, OTA 500 μg/ml, aspartame 10 μg/ml): no longer efficient | effect on the increase in serum creatinine [7, 21]: very markedly reduces the increase in serum creatinine | effect on urine creatinine [7, 21]: increases the level of urine creatinine, which is similar to the control values | effects on serum creatinine and serum creatinine/urine creatinine ratio (glomerular filtration) ([7]; aspartame 30 mg/kg with ochratoxin A 289 μg/kg): beneficial | effect on toxic oxidative effects of ochratoxin A [8]: opposes the toxic oxidative effects of ochratoxin A in vivo and in vitro | Quantities of OTA bound to plasma proteins, OTA + Aspartame (Table I) [9, 12]: 157 ± 12 ng/mL | Quantities of OTA bound to plasma proteins, OTA + Aspartame (Table I) [9, 13]: 97 ± 4 ng/mL | Quantities of OTA bound to plasma proteins, OTA + Aspartame (Table I) [9, 14]: 15 ± 3 ng/mL | Quantities of OTA bound to plasma proteins, OTA + Aspartame (Table I) [9, 15]: 193 ± 17 ng/mL | Quantities of OTA bound to plasma proteins, OTA + Aspartame (Table I) [9, 16]: 74 ± 11 ng/mL | Quantities of OTA bound to plasma proteins, OTA + Aspartame (Table I) [9, 17]: 55 ± 15 ng/mL | OTA available that is bound as compared to control without aspartame ([9]; OTA 100 μg/ml, aspartame 10 μg/ml): 4.5% | Quantities of OTA bound to plasma proteins, OTA + Aspartame (Table I) [9, 18]: 275 ± 41 ng/mL | Quantities of OTA bound to plasma proteins, OTA + Aspartame (Table I) [9, 19]: 296 ± 45 ng/mL | Quantities of OTA bound to plasma proteins, OTA + Aspartame (Table I) [9, 20]: 345 ± 51 ng/mL | OTA available that is bound to plasma proteins as compared to control without aspartame ([9]; OTA 500 μg/ml, aspartame 10 μg/ml): 19.8% | dependence of efficiency in preventing OTA binding on OTA concentration ([9]; OTA 20 to 500 μg/ml): inversely proportional to the concentrations of OTA | OTA available that is bound as compared to the control without aspartame ([9]; Table I, OTA 20 μg/ml, aspartame 10 μg/ml): 2% | efficiency in preventing the binding of OTA on human plasma proteins ([9]; Table I, OTA concentrations as high as 20 μg/ml, aspartame 10 μg/ml): about 98% | OTA bound (in words) ([9]; aspartame 10 μg/ml, i.e. 10 mg/l): practically no OTA bound | efficiency in preventing the OTA binding on human plasma proteins (conclusion) ([9]; normal conditions, OTA concentrations lower than 20 μg/ml): at least 95% | level of serum creatinine [10, 22]: significant reduction in the level of serum creatinine | level of urine creatinine [10, 22]: parallel increase in the level of urine creatinine, which is comparable to the control level | tubular and glomerular attacks caused by ochratoxin ([10]; summary statement): protects the kidney from the tubular and glomerular attacks caused by ochratoxin | effect on the increase in urinary enzymic activities caused by ochratoxin A [11]: appreciably reduces the increase in the enzymic activities caused by ochratoxin A | urinary enzymic activities vs controls [11]: not being significantly different from those of the controls
